A word on the IC50: it is the midpoint of a concentration-inhibition curve.

Each structure is given as a SMILES string. A value given as a limit tells only on which side of the number the result lay.

For this experiment, the target named is T1, Kv1.3 (Homo sapiens, UniProt P22001).
T1 construct: expressed in transfected cells; host or cells: CHO (Kv1.3/CHO)
T1 sequence (P22001 whole entry): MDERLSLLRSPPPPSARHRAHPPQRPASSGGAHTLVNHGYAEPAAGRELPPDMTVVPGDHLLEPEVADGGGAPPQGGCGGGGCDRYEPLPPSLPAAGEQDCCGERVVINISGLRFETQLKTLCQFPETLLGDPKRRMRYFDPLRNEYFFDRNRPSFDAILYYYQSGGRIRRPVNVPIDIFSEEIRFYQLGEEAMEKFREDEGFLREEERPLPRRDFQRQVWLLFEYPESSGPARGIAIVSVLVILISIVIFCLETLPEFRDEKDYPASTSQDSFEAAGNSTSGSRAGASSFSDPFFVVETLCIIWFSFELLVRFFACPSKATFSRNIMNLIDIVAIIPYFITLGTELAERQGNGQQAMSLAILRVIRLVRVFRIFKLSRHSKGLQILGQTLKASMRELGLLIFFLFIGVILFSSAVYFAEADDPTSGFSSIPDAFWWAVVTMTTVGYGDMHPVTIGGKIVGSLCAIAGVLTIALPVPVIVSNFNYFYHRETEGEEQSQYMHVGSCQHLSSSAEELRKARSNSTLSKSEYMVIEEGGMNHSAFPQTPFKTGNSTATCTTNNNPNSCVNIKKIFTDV
As to the kind of experiment: Electrophysiology: planar patch-clamp of Kv1.3 currents, IC50 from steady state current amplitude. Type of experiment: cell-based. Conditions: Kv1.3 electrophysiology, results according to Method D1, read-out: IC50 (Kv1.3 ephys steady state). As to the method: The inhibition data shown for the compounds of the list below was calculated using the steady state current amplitude at the end of the depolarising pulse in patch clamp evaluations (as described in the Biology Protocols: 1. Electrophysiology).
Kv1.x currents were measured in Kv1.3/CHO or Kv1.5/CHO cells using a planar electrode version (Nanion Technologies GMBH) of the patch-clamp technique. Whole-cell Kv1.x current transients were evoked by 500 ms depolarising voltage pulses to +40 mV from a holding potential of −80 mV applied at 10 s intervals for Kv1.5 and at 30 s intervals for Kv1.3 to allow adequate time for recovery from inactivation. Cells were continuously bathed in a buffered saline solution containing (mM): 160 NaCl, 4.5 KCl, 2 CaCl2, 1 MgCl2, 5 glucose, 10 HEPES, pH 7.4, 290-310 mOsm·Kg^−1. The internal (pipette) solution contained (mM): 10 NaCl, 70 KF, 75 KCl, 2 MgCl2, 10 HEPES, 10 EGTA, pH 7.2, 290-310 mOsm·Kg^−1. Series resistance compensation (60-80%) was applied to cells in which the peak current amplitude exceeded 2 nA.
Compound Preparation and Potency Assessment
Compounds were initially dissolved in DMSO to 10 mM. After further dilution in DMSO, compounds were finally diluted in bath solution 1/200 (to give a final DMSO concentration of 0.5%) and applied directly to the recording chamber. Compounds were added at increasing concentrations allowing ample time for steady state block to be achieved between each concentration. Each compound was tested at 5-6 different concentrations on 2-3 cells. Compound IC50 values were determined by fitting the average normalised reduction of either the current integral or the steady state current amplitude at the end of the 500 ms depolarising pulse obtained at each compound concentration to the Hill equation. The IC50 data reported herein is based on the steady state calculation.
(In patch-clamp work, channel activity is measured electrically.)
As for `CCS(=O)(=O)c1ccc(C(C2CC2)N(Cc2ccc(F)cn2)C(=O)C2CC2c2cccc(C(F)(F)F)c2)cc1` (stereo not shown) [Example 228], the IC50 lay in the range of 50 to 200 nM. Next, `CC(C)S(=O)(=O)c1cccc(C(C2CC2)N(Cc2ccc(F)cn2)C(=O)C2CC2c2ccc(F)cc2)c1` (stereo not shown) [Example 242]: 50 to 200 nM; `CCS(=O)(=O)c1cccc(C(C2CC2)N(Cc2ccc(F)cn2)C(=O)CC(C)c2ccccc2C(F)(F)F)c1` (stereo not shown) [Example 265]: 50 to 200 nM. Next, `CN1CC(C(c2ccc(OC(F)F)cc2)N(Cc2ccc(F)cn2)C(=O)C2CC2c2ccc(F)cc2)C1` (stereo not shown) [Example 154]: 200 to 1000 nM. Next, `CCS(=O)(=O)c1cccc(C(C2CC2)N(Cc2ccccn2)C(=O)C(C)(C)S(=O)(=O)c2ccccc2)c1` (stereo not shown) [Example 328]: 200 to 1000 nM; `O=C(C1CC1c1ccc(F)cc1)N(Cc1cnc[nH]1)C(c1ccc(OC(F)F)cc1)C1CC1` (stereo not shown) [Example 183]: 200 to 1000 nM.

Regarding `CC(C)(C(=O)N(Cc1ccccn1)C(c1ccc(OC(F)F)cc1)C1CC1)S(=O)(=O)c1ccc(F)cc1` (stereo not shown) [Example 318], the IC50 fell in the range of 50 to 200 nM.

As for `CN1CCC(C(c2cccc(C(F)(F)F)c2)N(Cc2cncc(F)c2)C(=O)C2CC2c2ccc(F)cc2)CC1` (stereo not shown) [Example 148], the 50% inhibitory concentration (IC50) lay within 200 to 1000 nM. Next, `O=C(CS(=O)(=O)c1cccc(C(F)(F)F)c1)N(Cc1ccccn1)C(c1ccc(Cl)cc1)C1CC1` (stereo not shown) [Example 293]: 50 to 200 nM. Next, `CC(c1ccc(S(C)(=O)=O)cc1)N(Cc1cccnn1)C(=O)C1CC1c1ccc(F)cc1` (stereo not shown) [Example 123]: 200 to 1000 nM.

For `O=C([C@@H]1C[C@H]1c1ccc(F)cc1)N(Cc1cccnn1)[C@H](c1ccc(OC(F)F)cc1)C1CC1` [Example 98, (1R,2R)-2-(4-Fluoro-phenyl)-cyclopropanecarboxylic acid [(S)-cyclopropyl-(4-difluoromethoxy-phenyl)-methyl]-pyridazin-3-ylmethyl-amide], the IC50 lay within 50 to 200 nM.

On to `Cc1ccc(CN(C(=O)CS(=O)(=O)c2ccccc2)C(c2ccc(OC(F)F)cc2)C2CC2)cn1` (stereo not shown) [Example 323], for which the IC50 lay in the range of 200 to 1000 nM.

With `O=C(CS(=O)(=O)c1ccc(F)cc1)N(Cc1ccccn1)C(c1ccccc1OCC(F)F)C1CC1` (stereo not shown) [Example 329], the half-maximal inhibitory concentration (IC50) is 50 to 200 nM. Next, `O=C([C@H]1C[C@@H]1c1ccc(F)cc1)N(Cc1ccccn1)[C@@H](c1ccc(Cl)cc1)C1CC1` (stereo in doubt) [Example 14, N-[(4-chlorophenyl)(cyclopropyl)methyl]-2-(4-fluorophenyl)-N-(pyridin-2-ylmethyl)cyclopropanecarboxamide]: under 50 nM. Next, `O=C(C1CC1c1ccc(F)cc1)N(Cc1ccc(F)cn1)C(c1ccc(F)cc1)C1CCOC1` (stereo not shown) [Example 175]: 200 to 1000 nM; `CC(C)(C(=O)N(Cc1cccnn1)C(c1ccc(OC(F)F)cc1)C1CC1)S(=O)(=O)c1ccc(F)cc1` (stereo not shown) [Example 308]: 50 to 200 nM. Next, `CCC(c1ccc(S(C)(=O)=O)cc1)N(Cc1ccc(C(F)(F)F)nc1)C(=O)C1CC1c1ccc(F)cc1F` (stereo not shown) [Example 128]: 50 to 200 nM.

For the compound `CC(C)(C(=O)N(Cc1ccccn1)C(c1ccc(OC(F)F)cc1)C1CC1)S(=O)(=O)c1ccc(F)cc1` (stereo not shown) [Example 319], the IC50 is 50 to 200 nM. Next, `O=C(CC1(c2ccc(F)cc2)CC1)N(Cc1cccnn1)[C@@H](c1ccc(OC(F)F)cc1)C1CC1` [Example 89, N—{(R)-cyclopropyl[4-(difluoromethoxy)phenyl]methyl}-2-[1-(4-fluorophenyl)cyclopropyl]-N-(pyridazin-3-ylmethyl)acetamide]: under 50 nM. Next, `Cc1ccc(CN(C(=O)CS(=O)(=O)c2ccccc2)C(c2ccc(OC(F)F)cc2)C2CC2)cn1` (stereo not shown) [Example 322]: 50 to 200 nM. As for `CCS(=O)(=O)c1ccc(C(C2CC2)N(Cc2ccc(F)cn2)C(=O)C2CC2c2ccc(F)cc2)cc1` (stereo not shown) [Example 233], the half-inhibitory concentration (IC50) was 50 to 200 nM.

On to `O=C(C1CC1c1ccc(F)cc1)N(Cc1cccnn1)C(c1ccc(S(=O)(=O)C2CC2)cc1)C1CC1` (stereo not shown) [Example 249], for which the IC50 is 50 to 200 nM.

The values are drawn from US9493451B2 (Bionomics Limited, priority 2011, dated 2016).
